Reference: US20130225548A1, “Pyridine Derivative and Medicinal Agent” (NIPPON SHINYAKU CO., LTD., priority 2010, published 2013)
Where a name gives a salt, the structure may show the parent alone.

Target: T1, Syk tyrosine kinase (Homo sapiens, UniProt P43405)
T1 construct: purchased Carna Biosciences, Inc
Experiment: Test for Syk tyrosine kinase inhibitory activity (ELISA)
Assay type: biochemical
Details: Syk tyrosine kinase (Carna Biosciences), 25 μM ATP in substrate solution, 30° C. 1 hour, n=2; read-out: Evaluation (IC50, concentration inhibiting the tyrosine kinase activity at 50%)
Outline: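 Syk kinase (0.025 nM stock before addition) with 625 nM biotinylated peptide and 25 μM ATP (substrate-solution levels) in Tris pH 7.5, MgCl2, DTT; 1 h at 30 °C on streptavidin plates. Phosphotyrosine detected by HRP anti-pTyr antibody, TMB, A450; IC50 by non-linear regression.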

| Compound | IC50 [nM] |
| --- | --- |
| CC(C)(O)Cn1cnc2cc(-c3cc(C4CC4)cc(Nc4cc(C#N)ccn4)n3)ccc21 [Example 118, 2-({4-cyclopropyl-6-[1-(2-hyroxy-2-methylpropyl)-1H-benzimidazol-5-yl]pyridin-2-yl}amino)pyridine-4-carbonitrile hydrochloride] | 50 to 500 |
| N#Cc1ccnc(Nc2cc(C3CC3)cc(-c3ccc(C#N)nc3)n2)c1 [Example 17, 6-[(4-cyanopyridin-2-yl)amino]-4-cyclopropyl-2,3′-bipyridine-6′-carbonitrile hydrochloride] | 50 to 500 |
| N#Cc1ccnc(Nc2cc(C3CC3)cc(-c3ccc(N[C@H]4CC[C@H](O)CC4)nc3)n2)c1 [Example 12, 2-({4-cyclopropyl-6′-[(trans-4-hydroxycyclohexyl)amino]-2,3′-bipyridin-6-yl}amino)pyridine-4-carbonitrile hydrochloride] | 50 to 500 |
| N#Cc1ccnc(Nc2cc(C3CC3)cc(-c3ccc4c(c3)ncn4C3CC3)n2)c1 [Example 150, 2-{[4-cyclopropyl-6-(1-cyclopropyl-1H-benzimidazol-5-yl)pyridin-2-yl]amino}pyridin-4-carbonitrile hydrochloride] | 50 to 500 |
| N#Cc1ccnc(Nc2cc(C3CC3)cc(-c3ccc(CO)nc3)n2)c1 [Example 71, 2-{[4-cyclopropyl-6′-(hydroxymethyl)-2,3′-bipyridin-6-yl]amino}pyridine-4-carbonitrile hydrochloride] | 50 to 500 |
| CC(C)NC(=O)N1CCN(c2ccc(-c3cc(C4CC4)cc(Nc4cc(C#N)ccn4)n3)cn2)CC1 [Example 44, 4-{6-[(4-cyanopyridin-2-yl)amino]-4-cyclopropyl-2,3′-bipyridin-6′-yl}-N-(propan-2-yl)piperazine-1-carboxamide hydrochloride] | 50 to 500 |
| 2-({6-[1-(4-cyanopiperidin-1-yl)isoquinolin-7-yl]-4-cyclopropylpyridin-2-yl}amino)pyridine-4-carbonitrile hydrochloride [Example 170] | 5 to 50 |
| N#Cc1ccnc(Nc2cc(C3CC3)cc(-c3ccc(N4CCC[C@H]4C(N)=O)nc3)n2)c1 [Example 40, (S)-1-{6-[(4-cyanopyridin-2-yl)amino]-4-cyclopropyl-2,3′-bipyridin-6′-yl}pyrrolidine-2-carboxamide hydrochloride] | 50 to 500 |
| CC(=O)N1CCCN(c2cncc(-c3cc(C4CC4)cc(Nc4cc(C#N)ccn4)n3)c2)CC1 [Example 110, 2-{[5′-(4-acetyl-1,4-diazepan-1-yl)-4-cyclopropyl-2,3′-bipyridin-6-yl]amino}pyridine-4-carbonitrile hydrochloride] | 50 to 500 |
| N#Cc1ccnc(Nc2cc(C3CC3)cc(-c3ccc(N4CCC(F)CC4)nc3)n2)c1 [Example 30, 2-{[4-cyclopropyl-6′-(4-fluoropiperidin-1-yl)-2,3′-bipyridin-6-yl]amino}pyridine-4-carbonitrile hydrochloride] | 50 to 500 |
| N#Cc1ccnc(Nc2cc(C3CC3)cc(-c3ccc(N4CCN(C(N)=O)CC4=O)nc3)n2)c1 [Example 67, 4-{6-[(4-cyanopyridin-2-yl)amino]-4-cyclopropyl-2,3′-bipyridin-6′-yl}-3-oxopiperazine-1-carboxamide hydrochloride] | 50 to 500 |
| COCCNc1ccc(-c2cc(C3CC3)cc(Nc3cc(C#N)ccn3)n2)cn1 [Example 21, 2-({4-cyclopropyl-6′-[(2-methoxyethyl)amino]-2,3′-bipyridin-6-yl}amino)pyridine-4-carbonitrile hydrochloride] | 5 to 50 |
| N#Cc1ccnc(Nc2cc(C3CC3)cc(-c3ccc4ncn(C5(CO)CCCCC5)c4c3)n2)c1 [Example 135, 2-[(4-cyclopropyl-6-(1-[1-(hydroxymethyl)cyclohexyl]-1H-benzimidazol-6-yl)pyridin-2-yl)amino]pyridine-4-carbonitrile hydrochloride] | 5 to 50 |
| CCOC(=O)CCn1cnc2cc(-c3cc(C4CC4)cc(Nc4cc(C#N)ccn4)n3)ccc21 [Example 123, ethyl 3-(5-{6-[(4-cyanopyridin-2-yl)amino]-4-cyclopropylpyridin-2-yl}-1H-benzimidazol-1-yl)propanonate hydrochloride] | 50 to 500 |

Further lines, results first:

| IC50 [nM] | Compound |
| --- | --- |
| 5 to 50 | N#Cc1ccnc(Nc2cc(C3CC3)cc(-c3ccc4ncn(C5CCOCC5)c4c3)n2)c1 [Example 139, 2-({4-cyclopropyl-6-[1-(tetrahydro-2H-pyran-4-yl)-1H-benzimidazol-6-yl]pyridin-2-yl}amino)pyridine-4-carbonitrile hydrochloride] |
| 5 to 50 | N#Cc1ccnc(Nc2cc(C3CC3)cc(-c3ccc(N4CC[C@@H](O)C4)nc3)n2)c1 [Example 22, 2-({4-cyclopropyl-6′-[(3R)-3-hydroxypyrrolidin-1-yl]-2,3′-bipyridin-6-yl}amino)pyridine-4-carbonitrile hydrochloride] |
| 5 to 50 | N#Cc1ccnc(Nc2cc(C3CC3)cc(-c3ccc(N4CCC(C(N)=O)(c5ccc(F)cc5)CC4)nc3)n2)c1 [Example 62, 1-{6-[(4-cyanopyridin-2-yl)amino]-4-cyclopropyl-2,3′-bipyridin-6′-yl}-4-(4-fluorophenyl)piperidine-4-carboxamide hydrochloride] |
| < 5 | CN1CCC(Oc2cncc(-c3cc(C4CC4)cc(Nc4cc(C#N)ccn4)n3)c2)CC1 [Example 99, 2-({4-cyclopropyl-5′-[(1-methylpiperidin-4-yl)oxy]-2,3′-bipyridin-6-yl}amino)pyridine-4-carbonitrile hydrochloride] |
| 5 to 50 | N#Cc1ccnc(Nc2cc(C3CC3)cc(-c3ccc4c(c3)ncn4CCC(N)=O)n2)c1 [Example 129, 3-(5-{6-[(4-cyanopyridin-2-yl)amino]-4-cyclopropylpyridin-2-yl}-1H-benzimidazol-1-yl)propanamide hydrochloride] |
| 5 to 50 | N#Cc1ccnc(Nc2cc(C3CC3)cc(-c3ccc(NCCO)nc3)n2)c1 [Example 2, 2-({4-cyclopropyl-6′-[(2-hydroxyethyl)amino]-2,3′-bypyridin-6-yl}amino)pyridine-4-carbonitrile hydrochloride] |
| 5 to 50 | N#Cc1ccnc(Nc2cc(C3CC3)cc(-c3cncc(OCCN4CCNCC4)c3)n2)c1 [Example 100, 2-({4-cyclopropyl-5′-[2-(piperazin-1-yl)ethoxy]-2,3′-bipyridin-6-yl}amino)pyridine-4-carbonitrile hydrochloride] |
| < 5 | N#Cc1ccnc(Nc2cc(C3CC3)cc(-c3ccc4[nH]c(=O)n([C@H]5CC[C@H](O)CC5)c4c3)n2)c1 [Example 156, 2-({4-cyclopropyl-6-[3-(trans-4-hydroxycyclohexyl)-2oxo-2,3-dihydro-1H-benzimidazol-5-yl]pyridin-2-yl}amino)pyridine-4-carbonitrile hydrochloride] |
| 5 to 50 | N#Cc1ccnc(Nc2cc(C3CC3)cc(-c3ccc4cn[nH]c4c3)n2)c1 [Example 55, 2-{[4-cyclopropyl-6-(1H-indazol-6-yl)pyridin-2-yl]amino}pyridine-4-carbonitrile hydrochloride] |
| 5 to 50 | N#Cc1ccnc(Nc2cc(C3CC3)cc(-c3cncc(NCC4CCNCC4)c3)n2)c1 [Example 94, 2-({4-cyclopropyl-5′-[(piperidin-4-ylmethyl)amino]-2,3′-bipyridin-6-yl}amino)pyridine-4-carbonitrile hydrochloride] |
| 5 to 50 | CC(C)(CO)CNc1ccc(-c2cc(C3CC3)cc(Nc3cc(C#N)ccn3)n2)cn1 [Example 24, 2-({4-cyclopropyl-6′-[(3-hydroxy-2,2-dimethylpropyl)amino]-2,3′-bipyridin-6-yl}amino)pyridine-4-carbonitrile hydrochloride] |
| 5 to 50 | N#Cc1ccnc(Nc2cc(C3CC3)cc(-c3ccc(N4CCC(O)CC4)nc3)n2)c1 [Example 20, 2-{[4-cyclopropyl-6′-(4-hydroxypiperidin-1-yl)-2,3′-bipyridin-6-yl]amino}pyridine-4-carbonitrile hydrochloride] |
| 5 to 50 | Cc1cc(N2CCS(=O)(=O)CC2)ncc1-c1cc(C2CC2)cc(Nc2cc(C#N)ccn2)n1 [Example 155, 2-{[4-cyclopropyl-6′-(1,1-dioxidethiomorpholin-4-yl)-4′-methyl-2,3′-bipyridin-6-yl]amino}pyridine-4-carbonitrile hydrochloride] |
| < 5 | N#Cc1ccnc(Nc2cc(C3CC3)cc(-c3cncc(COC4CCNCC4)c3)n2)c1 [Example 91, 2-({4-cyclopropyl-5′-[(piperidin-4-yloxy)methyl]-2,3′-bipyridin-6-yl}amino)pyridine-4-carbonitrile hydrochloride] |
| 5 to 50 | N#Cc1ccnc(Nc2cc(C3CC3)cc(-c3ccc4ncn(Cc5ccncc5)c4c3)n2)c1 [Example 133, 2-({4-cyclopropyl-6-[1-(pyridin-4-ylmethyl)-1H-benzimidazol-6-yl]pyridin-2-yl}amino)pyridine-4-carbonitrile hydrochloride] |
| 5 to 50 | Cn1ncc2cc(-c3cc(C4CC4)cc(Nc4cc(C#N)ccn4)n3)ccc21 [Example 36, 2-{[4-cyclopropyl-6-(1-methyl-1H-indazol-5-yl)pyridin-2-yl]amino}pyridine-4-carbonitrile hydrochloride] |
| 5 to 50 | CN(C)CCOc1cncc(-c2cc(C3CC3)cc(Nc3cc(C#N)ccn3)n2)c1 [Example 107, 2-({4-cyclopropyl-5′-[2-(dimethylamino)ethoxy]-2,3′-bipyridin-6-yl}amino)pyridine-4-carbonitrile hydrochloride] |
| 5 to 50 | N#CCCn1cnc2cc(-c3cc(C4CC4)cc(Nc4cc(C#N)ccn4)n3)ccc21 [Example 134, 2-({6-[1-(2-cyanoethyl)-1H-benzimidazol-5-yl]-4-cyclopropylpyridin-2-yl}amino)pyridine-4-carbonitrile hydrochloride] |
| 5 to 50 | CN1CCCN(c2ccc(-c3cc(C4CC4)cc(Nc4cc(C#N)ccn4)n3)cn2)CC1 [Example 38, 2-{[4-cyclopropyl-6′-(4-methyl-1,4-diazepan-1-yl)-2,3′-bipyridin-6-yl]amino}pyridine-4-carbonitrile dihydrochloride] |
